The values below come from patent publication US20040028744A1, “Mucoadhesive composition” (priority 2002, published 2004).

The nature of this series: Solubility of benzocaine in ethyl alcohol with and without menthol. The series is classed as physicochemical. From the text: While not wishing to be bound to any theory, it appears that, in embodiments containing the medicament, for example benzocaine, menthol improves the clarity of the composition by increasing the solubility of medicament in the gel composition. This belief is based on the observation that the solubility of benzocaine in ethyl alcohol containing menthol is higher than the solubility of benzocaine in ethyl alcohol without menthol. It is believed that menthol can enhance the interaction between polymethacrylate, such as Eudragit™ RS, and a medicament, such as benzocaine. This belief is based on an interaction study conducted with a Differential Scanning Calorimeter (DSC). Further, while not wishing to be bound to any theory, it appears that one or both of the polymers may be forming a complex with the medicament drug in the presence of menthol and enhancing the clarity of the composition.

Turning to `CCOC(=O)c1ccc(N)cc1` [benzocaine], the “solubility of benzocaine in ethyl alcohol containing menthol versus without menthol” value was “higher”.
